The results in this text go back to patent US9708314B2, “Heterocyclic amide compound” (NISSAN CHEMICAL INDUSTRIES, LTD., priority 2013, dated 2017).

Format in all cases: in vivo
The test system of one data set is Cyperus difformis. Briefly: Test Example 3: herbicidal effect by application to foliage (Wagner pot, water depth 0.1-0.5 cm). The following applies: Nineteenth Table, application herbicide amount 320 g/ha. The essentials: (§1)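 A small sprayer delivered the diluted emulsion uniformly to foliage at the chosen rate in g/ha, 14 days after sowing in Wagner pots held at 25–30 °C. Outcome: 0–5 herbicidal-ratio score read three weeks post-treatment.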

Data set [1] relates to Echinochloa crus-galli var. crus-galli. Described as above. The following applies: Nineteenth Table, application herbicide amount 320 g/ha. The essentials: as §1
Another data set has as its system Leptochloa chinensis. Described as above. The following applies: Nineteenth Table, application herbicide amount 320 g/ha. The essentials:
as §1

The subject of data set [2] is Echinochloa oryzacola Vasing. Briefly: Test Example 2: herbicidal activity, application during weed generation in submerged conditions. The following applies: Eighteenth Table; application herbicide amount 320 g/ha. A digest of the protocol:
(§2)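 Paddy-type pot test: flooded soil, 4 cm depth, greenhouse 25–30 °C. Emulsion formulation diluted in water, applied to water surface at 1–2 leaf stage; rate expressed as g/ha. Read-out at 3 wk, 0–5 score.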

The test system of data set [3] is directly sowed Oryza sativa. Put plainly: Test Example 3: effect on crop by application to foliage (Wagner pot, water depth 0.1-0.5 cm). The following applies: Nineteenth Table, application herbicide amount 320 g/ha. A digest of the protocol: as §1
A further data set has as its system Stellaria media. Briefly: Test Example 4: herbicidal effect by application to foliage (diluvial soil, plastic box). The following applies: application to foliage, application herbicide amount 320 g/ha. The essentials: (§3)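 Read-out is a 0–5 visual grade of herbicidal ratio (5: ≥90%, almost withered; 0: ≤5%) taken three weeks after treatment. Compound was applied as a diluted emulsion to stem and leaf parts of 14-day greenhouse-grown plants (25° C. to 30° C.) at rates expressed as g/ha.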

The next data set has as its system Amaranthus retroflexus. Described as above. Particulars: application to foliage, application herbicide amount 320 g/ha. A digest of the protocol:
as §3

Another data set has as its system Scirpus juncoides. Put plainly: Test Example 2: herbicidal activity, application during weed generation in submerged conditions. The following applies: Eighteenth Table; application herbicide amount 320 g/ha. A digest of the protocol: as §2
The subject of another data set is Monochoria vaginalis. The data set is described as above. The following applies: Eighteenth Table; application herbicide amount 320 g/ha. The essentials: as §2

Take `COc1cccc(-c2nnc3c(C(=O)Nc4nnc(C)o4)ccc(C(F)(F)F)n23)c1` [1-046]: the “E (Cyperus difformis) herbicidal ratio grade” value with Cyperus difformis was 3 (Herbicidal ratio of 40% or more and less than 70%). For the same compound, the “H (Echinochloa crus-galli var. crus-galli) herbicidal ratio grade” value in data set [1] is on record as 5 (Herbicidal ratio of 90% or more (almost completely withered)). The “D (Leptochloa chinensis) herbicidal ratio grade” value with Leptochloa chinensis is 3 (Herbicidal ratio of 40% or more and less than 70%). Moreover, the “A (Echinochloa oryzicola Vasing.) herbicidal ratio grade” value in data set [2] was 4 (Herbicidal ratio of 70% or more and less than 90%). For the same compound, the “b (directly sowed Oryza sativa) effect on crop grade” value in data set [3] is 3 (Herbicidal ratio of 40% or more and less than 70%). Further, the “P (Stellaria media) herbicidal effect” value with Stellaria media was 4 (Herbicidal ratio of 70% or more and less than 90%). The “N (Amaranthus retroflexus) herbicidal effect” value in the data set on Amaranthus retroflexus is given as 5 (Herbicidal ratio of 90% or more (almost completely withered)).

As for `CCS(=O)(=O)c1nnc2c(C(=O)Nc3nnc(C)o3)ccc(C(F)(F)F)n12` [1-041], in the data set with Cyperus difformis, the “E (Cyperus difformis) herbicidal ratio grade” value was 5 (Herbicidal ratio of 90% or more (almost completely withered)). In addition, in [1], the “H (Echinochloa crus-galli var. crus-galli) herbicidal ratio grade” value is 4 (Herbicidal ratio of 70% or more and less than 90%). In the data set on Leptochloa chinensis, the “D (Leptochloa chinensis) herbicidal ratio grade” value is given as 5 (Herbicidal ratio of 90% or more (almost completely withered)). Besides, the “A (Echinochloa oryzicola Vasing.) herbicidal ratio grade” value in [2] is 2 (Herbicidal ratio of 20% or more and less than 40%). Besides, in the data set on Scirpus juncoides, the “B (Scirpus juncoides) herbicidal ratio grade” value was 3 (Herbicidal ratio of 40% or more and less than 70%). For the same compound, the “b (directly sowed Oryza sativa) effect on crop grade” value in data set [3] was 2 (Herbicidal ratio of 20% or more and less than 40%). In addition, the “P (Stellaria media) herbicidal effect” value with Stellaria media was 5 (Herbicidal ratio of 90% or more (almost completely withered)). Moreover, the “N (Amaranthus retroflexus) herbicidal effect” value in the data set with Amaranthus retroflexus was 5 (Herbicidal ratio of 90% or more (almost completely withered)).

On to `Cc1nnc(NC(=O)c2ccc(C(F)(F)F)n3c(S(C)(=O)=O)nnc23)o1` [1-040], for which the “E (Cyperus difformis) herbicidal ratio grade” value with Cyperus difformis was 4 (Herbicidal ratio of 70% or more and less than 90%). In addition, in [1], the “H (Echinochloa crus-galli var. crus-galli) herbicidal ratio grade” value is 4 (Herbicidal ratio of 70% or more and less than 90%). Further, in the data set on Leptochloa chinensis, the “D (Leptochloa chinensis) herbicidal ratio grade” value is 5 (Herbicidal ratio of 90% or more (almost completely withered)). Moreover, the “A (Echinochloa oryzicola Vasing.) herbicidal ratio grade” value in data set [2] is 3 (Herbicidal ratio of 40% or more and less than 70%). Further, the “B (Scirpus juncoides) herbicidal ratio grade” value with Scirpus juncoides was 2 (Herbicidal ratio of 20% or more and less than 40%). In data set [3], the “b (directly sowed Oryza sativa) effect on crop grade” value was 3 (Herbicidal ratio of 40% or more and less than 70%). Besides, in the data set on Stellaria media, the “P (Stellaria media) herbicidal effect” value is reported as 5 (Herbicidal ratio of 90% or more (almost completely withered)). In the data set with Amaranthus retroflexus, the “N (Amaranthus retroflexus) herbicidal effect” value was 5 (Herbicidal ratio of 90% or more (almost completely withered)).

With `Cc1nnc(NC(=O)c2ccc(C(F)(F)F)n3c(CC[S+](C)[O-])nnc23)o1` (stereo not drawn) [1-084], in the data set with Cyperus difformis (application to foliage), the “E (herbicidal effect grade)” value is 5 (Herbicidal ratio of 90% or more (almost completely withered)). Moreover, in [1] (application to foliage), the “H (herbicidal effect grade)” value is listed as 5 (Herbicidal ratio of 90% or more (almost completely withered)). Also, the “D (herbicidal effect grade)” value in the data set on Leptochloa chinensis (application to foliage) is on record as 5 (Herbicidal ratio of 90% or more (almost completely withered)). Further, the “A (Echinochloa oryzicola Vasing.) herbicidal ratio grade” value in data set [2] is 2 (Herbicidal ratio of 20% or more and less than 40%). Moreover, in the data set with Monochoria vaginalis, the “C (Monochoria vaginalis) herbicidal ratio grade” value is listed as 0 (Herbicidal ratio of 5% or less (almost no effect)). In addition, the “B (Scirpus juncoides) herbicidal ratio grade” value in the data set on Scirpus juncoides is 1 (Herbicidal ratio of 5% or more and less than 20%). The “b (effect on crop grade)” value in data set [3] (application to foliage) was 2 (Herbicidal ratio of 20% or more and less than 40%).
